This passage reports concentration results from patent US20230096051A1, “CGRP ANTIGONISTS USEFUL AS TRACER COMPOUNDS FOR POSITRON EMISSION TOMOGRAPHY” (Eli Lilly and Company, priority 2019, published 2023).

Like-named read-outs stand apart in the source and are kept apart here.

The nature of the data set: In vivo rat tracer distribution and brain uptake (LC-MS/MS). On the set-up: species or system Sprague-Dawley rats. As to conditions: Sprague-Dawley, iv, 10 μg/kg i.v. On the procedure:
Stock Formulation: Prepare a tracer stock solution at 0.5 mg/mL in 25% HP-BCD/PW (corrected for salt weight). Vortex thoroughly for 30 sec and place in bath sonication for 30 mins. Confirm the stock formulation is a clear solution or homogeneous suspension. Acid (10 μL acetic acid) or base (10 μL 5N NaOH), probe sonication, or a sonic bath may be used to aid in solubilization.
Final Dosing Formulation: If the stock formulation is a solution or homogeneous suspension, allow the stock solution to sit at room temperature for 5 min, and confirm and document the appearance of the stock formulation. Dilute the stock solution to the appropriate dose concentrations with 25% HP-BCD/PW. Vortex the final dosing solutions for 30 sec. Final tracer dosing solution is used for generation of the LC/MS/MS calibration standards in the appropriate matrix.
Study populations: Animal studies are performed under protocols approved by Eli Lilly and Company and PreClinOmics Institutional Animal Care and Use Committee. Twenty Sprague-Dawley rats weighing 200-300 g are obtained from Harlan Sprague Dawley Inc. (Indianapolis, Ind.) and are randomized into 4 groups of 5 animals each. Animals have access to food and water ad libitum before the study.
Live Phase Methods: Five animals per dose group are used. Each animal receives 10 μg/kg of the CGRP tracer compound administered intravenously in the lateral tail vein. Animals are euthanized by cervical dislocation followed by decapitation or live decapitation after 5, 10, 20 or 40 min survival intervals.
Trunk blood is collected in EDTA-coated Eppendorf tubes and stored on wet ice until study completion. The whole brain is rapidly removed, and lightly rinsed with sterile water. Frontal cortex, hippocampus, cerebellum, brainstem, and striatum brain tissues are dissected, weighed, stored in 1.5 mL Eppendorf tubes, and placed on wet ice until completion of live phase study.
Using a drug naïve test subject, blood and seven cortical brain tissues samples are collected for use in generating blank and standard curve samples.
Tissue—Tissue samples are kept on wet ice until the completion of the live phase. Tissue samples collected from test and naïve subjects are homogenized at PreClinOmics (Indianapolis, Ind., USA) and immediately taken to AIT Bioscience (Indianapolis, Ind., USA) on wet ice to be centrifuged along with an excel sheet indicating tissue weights, amount of ACN+0.1% HCOOH added to all tissue samples, and how the naive tissues were spiked for standards. Details on processing at PreClinOmics are as follows:
ACN containing 0.1% HCOOH is added to each tissue sample at a volume of four times the weight of the tissue sample (e.g., Add 600 μL ACN to a 150 mg brain tissue). The sample is homogenized via probe sonication. The standard curve is a 6-point curve with the range of 0.3-60 ng/g, linear regression, correlation coefficient, R^2, minimum of ≥0.95. Calibration standards are prepared from control tissue matrix homogenate (of the same organ) spiked with a calculated volume of standard (prepared from the tracer dosing solution used during the live phase). The homogenized tissue samples and spiked standards are transferred to AIT Bioscience on wet ice. Once at AIT Biosciences, all homogenized samples are centrifuged for 20 min at 14,000 rpm. The supernatant solution is diluted with an internal standard solution (1.0 ng/mL diphenhydramine in water) at a ratio of 1:4. Following dilution of the supernatant, if the total sample volume in the well plate is too small for injection, an additional dilution is performed using the mobile phase, ACN:water:0.1% HCOOH (20:80:0.1), at a ratio of 1:1. This solution is mixed thoroughly and analyzed via LC/MS/MS for tracer compound. Additional dilutions incurred due to small sample volume have an appropriate dilution factor applied during regression analysis.
Blood Samples—Whole blood samples are kept on wet ice until the completion of the live phase. […]

[1] abbreviates: brain stem, read-out: Mean tracer concentration ± SEM, Brain Stem.
Where [2] appears, read: cerebellum, read-out: Mean tracer concentration ± SEM, Cerebellum.
Setting [3] is: frontal cortex, read-out: Mean tracer concentration ± SEM, Frontal Cortex.
Setting [4] is: hippocampus, read-out: Mean tracer concentration ± SEM, Hippocampus.
The mark [5] stands for this setting: plasma, read-out: Mean tracer conc (plasma) ± SEM.
Setting [6] is: striatum, read-out: Mean tracer concentration ± SEM, Striatum.

In the case of `Cc1cc(N2CCC2)cc(OCc2ccc([C@@H](C)[C@@]3(C)C(=O)NC[C@@H]3CF)cc2)n1` [Example 1, (3R,4R)-3-[(1R)-1-[4-[[4-(azetidin-1-yl)-6-methyl-2-pyridyl]oxymethyl]phenyl]ethyl]-4-(fluoromethyl)-3-methyl-pyrrolidin-2-one], the concentration at 5 min is, setting by setting: under setting [1], 3.69 ± 0.29 ng/g; under setting [2], 3.52 ± 0.16 ng/g; under setting [3], 4.19 ± 0.29 ng/g; under setting [4], 3.52 ± 0.32 ng/g; under setting [5], 6.3 ± 0.63 ng/mL; under setting [6], 3.94 ± 0.32 ng/g. The concentration at 10 min runs as follows: under setting [1], 2.46 ± 0.09 ng/g; under setting [2], 1.91 ± 0.05 ng/g; under setting [3], 2.27 ± 0.05 ng/g; under setting [4], 2.33 ± 0.09 ng/g; under setting [5], 3.37 ± 0.37 ng/mL; under setting [6], 2.44 ± 0.13 ng/g. Further, the concentration at 20 min turned out to be 1.21 ± 0.08 ng/g under setting [1]; 0.9 ± 0.06 ng/g under setting [2]; 0.98 ± 0.06 ng/g under setting [3]; 1.06 ± 0.07 ng/g under setting [4]; 1.72 ± 0.12 ng/mL under setting [5]; 1.12 ± 0.07 ng/g under setting [6]. Besides, the concentration at 40 min by setting is: under setting [1], 0.41 ± 0.03 ng/g; under setting [2], 0.28 ± 0.02 ng/g; under setting [3], 0.29 ± 0.02 ng/g; under setting [4], 0.33 ± 0.02 ng/g; under setting [5], 0.48 ± 0.05 ng/mL; under setting [6], 0.34 ± 0.02 ng/g.

Consider `Cc1cc(N2CC(F)C2)cc(OCc2ccc([C@@H](C)[C@@]3(C)C(=O)NC[C@@H]3C)cc2)n1` [Example 2, (3R,4R)-3-[(1R)-1-[4-[[4-(3-fluoroazetidin-1-yl)-6-methyl-2-pyridyl]oxymethyl]phenyl]ethyl]-3,4-dimethyl-pyrrolidin-2-one], for which the concentration at 5 min amounted to 8.73 ± 0.51 ng/g under setting [1]; 8.76 ± 0.48 ng/g under setting [2]; 9.48 ± 0.57 ng/g under setting [3]; 7.66 ± 0.42 ng/g under setting [4]; 9.82 ± 0.82 ng/mL under setting [5]; 9.36 ± 0.54 ng/g under setting [6]. Moreover, the concentration at 10 min by setting is: under setting [1], 5.27 ± 0.85 ng/g; under setting [2], 4.78 ± 0.78 ng/g; under setting [3], 5.07 ± 0.56 ng/g; under setting [4], 4.64 ± 0.78 ng/g; under setting [5], 5.54 ± 0.8 ng/mL; under setting [6], 5.23 ± 0.91 ng/g. The concentration at 20 min is, setting by setting: under setting [1], 2.56 ± 0.33 ng/g; under setting [2], 2.08 ± 0.22 ng/g; under setting [3], 2.19 ± 0.24 ng/g; under setting [4], 2.29 ± 0.36 ng/g; under setting [5], 2.88 ± 0.37 ng/mL; under setting [6], 2.42 ± 0.28 ng/g. Moreover, the concentration at 40 min by setting is: under setting [1], 1.08 ± 0.08 ng/g; under setting [2], 0.88 ± 0.11 ng/g; under setting [3], 0.8 ± 0.09 ng/g; under setting [4], 0.74 ± 0.14 ng/g; under setting [5], 1.03 ± 0.12 ng/mL; under setting [6], 1.06 ± 0.16 ng/g.

On to `Cc1cc(N2CC(F)C2)cc(OCc2ccc([C@@H](C)[C@@]3(C)C(=O)NC[C@@H]3CF)cc2)n1` [Example 3, (3R,4R)-3-[(1R)-1-[4-[[4-(3-fluoroazetidin-1-yl)-6-methyl-2-pyridyl]oxymethyl]phenyl]ethyl]-4-(fluoromethyl)-3-methyl-pyrrolidin-2-one], for which the concentration at 5 min under setting [1] came to 3.13 ± 0.22 ng/g; the concentration at 5 min under setting [2] came out at 3.06 ± 0.22 ng/g; the concentration at 5 min under setting [3] turned out to be 3.55 ± 0.33 ng/g; the concentration at 5 min under setting [4] stood at 2.9 ± 0.2 ng/g; the concentration at 5 min under setting [5] was determined as 6.2 ± 0.5 ng/mL; the concentration at 5 min under setting [6] is 3.57 ± 0.28 ng/g. The concentration at 10 min was 2.01 ± 0.17 ng/g under setting [1]; 1.76 ± 0.13 ng/g under setting [2]; 1.92 ± 0.16 ng/g under setting [3]; 1.91 ± 0.14 ng/g under setting [4]; 3.65 ± 0.26 ng/mL under setting [5]; 2.14 ± 0.16 ng/g under setting [6]. In addition, the concentration at 20 min is 1.18 ± 0.06 ng/g under setting [1]; 0.88 ± 0.06 ng/g under setting [2]; 0.92 ± 0.05 ng/g under setting [3]; 1.01 ± 0.06 ng/g under setting [4]; 1.94 ± 0.15 ng/mL under setting [5]; 1.09 ± 0.07 ng/g under setting [6]. For the same molecule, the concentration at 40 min under setting [1] came out at 0.42 ± 0.02 ng/g; the concentration at 40 min under setting [2] turned out to be 0.31 ± 0.02 ng/g; the concentration at 40 min under setting [3] came to 0.31 ± 0.02 ng/g; the concentration at 40 min under setting [4] came out at 0.34 ± 0.02 ng/g; the concentration at 40 min under setting [5] is 0.73 ± 0.04 ng/mL; the concentration at 40 min under setting [6] worked out at 0.36 ± 0.04 ng/g.
